Measurements published in patent US8901129B2, “Methods of facilitating neural cell survival using GDNF family ligand (GFL) mimetics or RET signaling pathway activators” (GeneCode AS, priority 2009, dated 2014).

Legend:
GFRα3/RET = target: T1, GFRα3/RET (Homo sapiens, UniProt O60609+P07949); test: RET phosphorylation by BT compounds, IP and Western blotting (FIG. 6B); assay type: cell-based; conditions: 100 μM, 15 min; MG87 RET fibroblasts transfected with GFRα3
T1 construct: Full-length human GFRα3 cDNA (Wang et al., 2006); expressed in transfected cells; host or cells: MG87RET murine fibroblasts transiently transfected with GFRα3
Method: (§1) MG87RET cells were plated on 35 mm tissue culture dishes the day before the experiment. Cells were transfected with GFRα1, GFRα3 or with an vector encoding for GFP. On the day of the experiment cells were starved for 4 hours in serum-free DMEM and stimulated with the investigated compounds (structures shown in the description of FIG. 6, above) at 100 μM concentration or with 100 ng/ml of GDNF or ARTN (positive control) for 15 min. Then cells were washed once with ice-cold PBS containing 1 mM Na3VO4 and lysed on ice in 1 ml per well of RIPA-modified buffer (50 mM Tris-HCl, pH 7.4, 150 mM NaCl, 1 mM EDTA, 1% NP-40, 1% TX-100, 10% glycerol, EDTA-free protease inhibitor cocktail (Roche), 1 mM Na3VO4, 2.5 mg/ml of sodium deoxycholate, 1 mM PMSF. Ret was immunoprecipitated by anti-RET C-20 antibodies (Santa-Cruz Biotechnology, Inc.). Precipitated proteins were resolved on 7.5% SDS-PAGE and then transferred onto a nitrocellulose membrane. Membrane was blocked for 15 min at room temperature by 10% nonfat dry milk in TBS-T and probed with anti-phosphotyrosine antibodies (clone 4G10, Upstate Biotechnology) diluted 1:1000 in TBS-T containing 3% nonfat dry milk for 2 hours at room temperature. The membranes were washed 3 times for 5 min in TBS-T and incubated in the 1:3000 solution of secondary anti-mouse antibodies conjugated with HRP (DAKO) diluted in TBS-T containing 3% nonfat dry milk for 45 min at room temperature. Membranes were washed with TBS-T for 5×10 min. Stained bands were visualized with ECL reagent (Pierce) using LAS3000 imaging program. To confirm equal loading of the proteins, membranes were probed with anti-RET C-20 antibodies (1:500, Santa-Cruz Biotechnology, inc.) after stripping. We used secondary anti-goat antibodies conjugated with HRP (1:1500, DAKO) to detect C-20.

6-OHDA-treated rats = test: Side effects / toxic effects after intrastriatal injection in 6-OHDA-treated rats; assay type: in vivo; conditions: injected intrastriatally
Method: GDNF mimetics compounds, GDNF or vehicle is administered to the striatum at 3 weeks after the exposure to the neurotoxin 6-OHDA. The selective damage to dopaminergic neurons in the SNc, as well as striatal levels of dopamine and its metabolites are evaluated 12 weeks after the injection of 6-OHDA with tyrosine hydroxylase (TH) immunohistochemistry and HPLC, respectively. In addition, the behavioral impairment of rats is evaluated by forelimb asymmetry test (cylinder test), amphetamine induced rotation asymmetry test and Y-maze test for stereotypic spontaneous rotation deficits.
On day 21, rats are re-anesthetized with 5% isoflurane (in 70% N2O and 30% O2; flow 300 ml/min) and placed in a stereotactic frame. During the operation concentration of anesthetic is reduced to 1-1.5%. The rectal temperature is maintained at 37.0±1.0° C. with a homeothermic blanket system. The right brain hemisphere is exposed through a small craniectomy to the skull. A stereotaxic injection of the test compound, GDNF or vehicle is made into the right striatum. Each dosing solution is infused at a speed of 1 μl/min and is equally distributed between 4 sites at the following coordinates: AP+1.0, ML+2.8, DV−6.0, −5.5, −5.0 and −4.4 mm. The cannula is left in place for another 5 min before being withdrawn. The hole in the skull is subsequently filled with repair material and the skin is closed and disinfected. The rats are allowed to recover from anesthesia and are carefully monitored for possible post surgical complications. The animals are returned to the home cages with ad libitum access to food and water.
Animals are monitored daily by laboratory personnel. […] Definitions of acceptable endpoints include: no spontaneous movements and inability to drink or eat in 24-h observation period, massive bleeding, spontaneous inflammation, missing anatomy, swelling or tumors larger than 20 mm, and inability to right itself in 30 sec period.

GFRα1/RET = target: T2, GFRα1/RET (Homo sapiens, UniProt P07949+P56159); test: RET phosphorylation by BT compounds, IP and Western blotting (FIG. 6A); assay type: cell-based; conditions: 100 μM, 15 min; MG87 RET fibroblasts transfected with GFRα1
T2 construct: Full-length human GFRα1 cDNA (Sidorova et al., unpublished) subcloned in pcDNA6; expressed in transfected cells; host or cells: MG87RET murine fibroblasts transiently transfected with GFRα1
Method: as §1

T2 sequence (P56159 25-429 limits assumed, species assumed): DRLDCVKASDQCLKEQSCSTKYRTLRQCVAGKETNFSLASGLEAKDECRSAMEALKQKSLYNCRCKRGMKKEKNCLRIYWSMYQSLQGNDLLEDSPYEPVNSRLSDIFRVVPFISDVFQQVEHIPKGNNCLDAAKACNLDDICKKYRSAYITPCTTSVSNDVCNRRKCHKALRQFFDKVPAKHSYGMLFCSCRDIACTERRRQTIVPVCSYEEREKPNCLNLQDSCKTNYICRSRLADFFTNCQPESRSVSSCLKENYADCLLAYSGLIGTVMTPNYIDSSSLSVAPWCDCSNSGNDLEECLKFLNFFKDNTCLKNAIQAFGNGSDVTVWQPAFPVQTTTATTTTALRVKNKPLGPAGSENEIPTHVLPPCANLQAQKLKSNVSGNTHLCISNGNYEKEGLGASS
T2 sequence (P07949 29-1114, species assumed): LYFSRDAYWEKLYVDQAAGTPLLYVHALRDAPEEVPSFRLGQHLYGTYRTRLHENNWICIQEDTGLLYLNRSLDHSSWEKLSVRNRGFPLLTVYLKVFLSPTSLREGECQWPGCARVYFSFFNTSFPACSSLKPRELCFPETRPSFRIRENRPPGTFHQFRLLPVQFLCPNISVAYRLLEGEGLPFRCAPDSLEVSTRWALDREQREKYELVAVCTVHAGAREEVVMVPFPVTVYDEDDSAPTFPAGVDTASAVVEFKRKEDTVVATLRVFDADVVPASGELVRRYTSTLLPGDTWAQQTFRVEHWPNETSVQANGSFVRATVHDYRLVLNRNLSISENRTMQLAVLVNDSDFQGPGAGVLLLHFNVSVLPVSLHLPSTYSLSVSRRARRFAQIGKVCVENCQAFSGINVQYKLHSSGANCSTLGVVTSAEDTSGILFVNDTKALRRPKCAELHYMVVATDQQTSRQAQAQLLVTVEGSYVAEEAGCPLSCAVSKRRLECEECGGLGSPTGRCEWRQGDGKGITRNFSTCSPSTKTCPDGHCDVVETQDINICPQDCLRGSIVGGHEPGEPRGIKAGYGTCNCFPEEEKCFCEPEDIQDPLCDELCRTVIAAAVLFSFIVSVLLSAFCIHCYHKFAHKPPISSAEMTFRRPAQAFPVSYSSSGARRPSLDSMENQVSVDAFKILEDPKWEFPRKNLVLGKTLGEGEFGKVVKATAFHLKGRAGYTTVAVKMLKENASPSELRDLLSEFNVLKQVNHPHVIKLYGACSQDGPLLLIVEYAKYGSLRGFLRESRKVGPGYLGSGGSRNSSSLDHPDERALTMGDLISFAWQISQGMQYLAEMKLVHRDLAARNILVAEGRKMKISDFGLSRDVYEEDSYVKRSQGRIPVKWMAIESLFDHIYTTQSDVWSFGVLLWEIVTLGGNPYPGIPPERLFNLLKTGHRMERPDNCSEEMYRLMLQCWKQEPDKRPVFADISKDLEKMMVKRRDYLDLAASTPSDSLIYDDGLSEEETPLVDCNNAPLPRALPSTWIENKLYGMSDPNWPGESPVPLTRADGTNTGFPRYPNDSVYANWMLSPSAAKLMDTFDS
T1 sequence (O60609 32-374 limits assumed): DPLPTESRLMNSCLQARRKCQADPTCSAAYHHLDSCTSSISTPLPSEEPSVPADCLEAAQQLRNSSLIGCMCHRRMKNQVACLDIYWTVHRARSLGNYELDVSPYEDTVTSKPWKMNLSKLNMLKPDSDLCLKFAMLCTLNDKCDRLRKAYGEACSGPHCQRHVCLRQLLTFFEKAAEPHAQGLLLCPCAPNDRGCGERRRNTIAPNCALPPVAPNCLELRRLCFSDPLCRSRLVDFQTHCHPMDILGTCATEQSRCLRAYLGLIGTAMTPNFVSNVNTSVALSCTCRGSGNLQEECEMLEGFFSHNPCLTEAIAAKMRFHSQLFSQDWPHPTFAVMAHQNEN
T1 sequence (P07949 29-1114): as the sequence (P07949 29-1114, species assumed) above

Row | Structure (SMILES) | RET phosphorylation via GFRα3 (GFRα3/RET) | toxic effects in behavioral assays (6-OHDA-treated rats) | RET phosphorylation via GFRα1 (GFRα1/RET)
1 | CCN(CC)S(=O)(=O)c1ccc(OC)c(N2CCN(C(=O)c3cc(F)ccc3C(F)(F)F)CC2)c1 [BT13] | strongly activated RET | did not cause toxic effects | strongly activated RET
2 | COc1ccc(S(=O)(=O)N2CCc3ccccc3C2)cc1N1CCN(C(=O)c2cc(F)ccc2C(F)(F)F)CC1 [BT16] | likely the weaker GFRα3/RET agonists | did not cause toxic effects | strongly activated RET
3 | COc1cc2c(cc1OC)CN(S(=O)(=O)c1ccc(OC)c(N3CCN(C(=O)c4cc(F)ccc4C(F)(F)F)CC3)c1)CC2 [BT18] | likely the weaker GFRα3/RET agonists | did not cause toxic effects | likely the weaker GFRα1/RET agonists
